Measurements as given in patent US20250319213A1, “FUNCTIONALIZED BISAMINOTHIOL DERIVATIVES, COMPLEXES WITH THESE BISAMINOTHIOL DERIVATIVES AND USE OF SAID COMPLEXES AS DIAGNOSTICS AND THERAPEUTICS” (ABX ADVANCED BIOCHEMICAL COMPOUNDS – BIOMEDIZINISCHE …, priority 2022, published 2025).

Tests used:
[1] = target: T1, PSMA (Homo sapiens, UniProt Q04609); assay: Direct binding affinity on LNCaP cells (saturation); settings: [99mTc]TcO complex of the listed compound, saturation 0.3-40 nM, 1 h 37° C., mean ± SEM, read-out: Kd [nM] of [99mTc]TcO-complexes
T1 construct: host or cells: LNCaP human prostate carcinoma cells
Method: (§1) Competition, saturation and internalization assays were assessed using the high PSMA expressing human prostate carcinoma cell line LNCaP (ATCC® CRL-1740). The cells were grown as monolayer at 37° C. in a humidified atmosphere comprising 5% CO2 and 95% air in RPMI medium including 10% FCS (Merck KGAA, Germany). After washing the confluent cells twice with phosphate buffered saline (PBS) and detaching them with trypsin/EDTA (0.05%/0.02%), the cells were suspended in medium and counted (Casy TT, Omni Life Science, Germany).
For saturation monolayer of LNCaP cells were seeded, 5×10^4 cells/well in 48-well plates two days before the assay. On the day of saturation, after aspirating the medium, 160 μL of medium (for ^99mTc-labeled radioligand with D-mannitol (1 mg/mL)) were pipetted per well, for non-specific binding samples including 100 μM 2-PMPA. After preincubation for 5 min, 40 μL activity ([^68Ga]Ga-PSMA-11 or ^99mTc-labeled radioligand solution) were added (total volume/well: 200 μL). Eight concentrations ranged between 0.3 and 40 nM.
After 1 hour of incubation at 37° C. both for competition and saturation samples, the supernatants were aspirated and the cells washed twice with cold PBS. The cell lawn was lysed with 500 μL NaOH/SDS (0.1 M/1%) by shaking for 3 to 5 minutes. After transferring the lysates into measuring tubes, the activity of the samples was measured in a gamma counter (2480 Automatic Gamma Counter Wizard 2, Perkin Elmer, USA).
The half maximal inhibitory concentrations (IC50) and the dissociations constants (Kd) were calculated by fitting the data using a nonlinear curve-fitting program (GraphPad Prism 9). With the Kd value of [^68Ga]Ga-PSMA-11 on LNCaP and the known concentration of [^68Ga]Ga-PSMA-11 in the competition assay the inhibition constants (Ki) was also determined with the curve-fitting program.

[2] = Determination of log D values (shake-flask, octanol/medium); format: physicochemical
Method: Log D values were determined for different media by the shake-flask method (Andrés, A.; Rosés, M.; Ràfols, C.; Bosch, E.; Espinosa, S.; Segarra, V.; Huerta, J. M. Setup and validation of shake-flask procedures for the determination of partition coefficients (log D) from low drug amounts. Eur. J. Pharm. Sci. 2015, 76, 181-191.). In preparation, octanol was saturated with each of the used buffer solutions and vice versa. To 3 mL of octanol, together with 3 mL of buffer solution 200-300 μL of the ^99mTc-labeled radioligand (15-25 MBq, samples in triplicate) were added and shaken vigorously for 30 min. After centrifugation at 9,000 rpm for 15 min, samples were taken from both separated phases and measured by gamma-counter. Log D values were calculated as the ratio of radioactivity determined in octanol and aqueous phase.

[3] = Product stability in DPBS at 25° C.; format: physicochemical; settings: DPBS (+Ca2+, +Mg2+), mean ± SD; for Fraction of radioligand in DPBS at 25° C., 1 h / Fraction of radioligand in DPBS at 25° C., 2 h / Fraction of radioligand in DPBS at 25° C., 4 h / Fraction of radioligand in DPBS at 25° C., 20 h: normalized to fraction immediately after preparation
Method: (§2) In brief, the freshly produced ^99mTc-labeled radioligand solution (10-20 MBq, 20-100 μL) was added to the respective medium (200-400 μL), vortexed quickly, and shook gently at the respective temperature mentioned below. At certain time points, samples were taken, diluted, and measured by radio-RP-HPLC. Hereby, investigation of plasma samples included protein precipitation with the 4-fold volume of an ice-cold mixture of methanol/water (4/1, v/v), intensive shaking (5 min) and centrifugation (14,000 rpm, 10 min), before inspection of the supernatant. In addition, the recovery of extracted activity was calculated after activity measurement of supernatant and residue by a gamma counter.

[4] = Product stability in mouse plasma (in vitro); format: in vitro ADME; settings: mean ± SD (n = 3-4), normalized to fraction immediately after preparation
Method: as §2

[5] = test system: LNCaP cells; assay: Determination of the internalization (surface binding and internalized activity); format: cell-based, human; settings: 1 h; for Internalization, 4° C. (% AD/mg Protein) / Internalization, 37° C. (% AD/mg Protein): cytosolic activity; for Internalization, 4° C. (% AD/mg Protein) / Internalization, 37° C. (% AD/mg Protein) / Binding, 4° C. (% AD/mg Protein) / Binding, 37° C. (% AD/mg Protein): 25 nM radioligand, mean ± SEM; for Binding, 4° C. (% AD/mg Protein) / Binding, 37° C. (% AD/mg Protein): surface-bound activity
Method: as §1
For internalization LNCaP and PC3 cells were seeded, 1×10^5 cells/well in 24-well plates two days before the assay. On the day of internalization, after aspirating the medium, 100 μL of PBS and, for non-specific binding samples, 100 μL 2-PMPA (100 μM) were pipetted into the wells, followed by 400 μL medium including activity. The concentration of the ^99mTc-labeled radioligands was 25 nM. After 1 h of incubation at 37° C. and adjacent well plates at 4° C., the supernatant was removed and the cells washed with cold PBS. Surface-bound activity was stripped with 4° C. cold acid-wash buffer (0.2 M glycine, pH 2.8) for 5 min. The acid wash buffer was transferred from the plate wells to measuring tubes, as was the PBS buffer after washing once (binding on the surface). Cytosolic activity was determined after treatment with cell lysis buffer (0.1 M NaOH/1% SDS). Cell surface and cytosolic activity were measured separately in a gamma counter. Determination of protein content from cell lysate was performed using a spectrophotometer (NanoDrop, Thermo Fisher Scientific, USA) at an absorbance of 280 nm.

[6] = Product stability at room temperature (without addition of any media); format: physicochemical; settings: no media, radio-RP-HPLC
Method: as §2

[7] = test system: subcutaneous LNCaP tumor xenografts; assay: SPECT/CT and PET/CT imaging in LNCaP tumor bearing mice; format: in vivo; settings: LNCaP tumor bearing mice after 1 h and 4 h (FIG. 5)
Method: A prostate cancer xenograft model was generated via subcutaneous injection of human LNCaP cells into the right shoulder of 8-12 week-old male nude mice (Rj:NMRI-Foxn1^nu/nu, Janvier Labs, Le Genest-Saint-Isle, France). Imaging studies were performed when tumors reached a diameter of >6 mm. General anesthesia was induced and maintained with inhalation of 10% (v/v) desflurane in […] oxygen/air. During anesthesia, animals were continuously warmed at 37° C.
Small animal single-photon emission computed tomography (SPECT) was performed using the nanoSPECT/CT scanner (Mediso Medical Imaging Systems) equipped with an APT63 aperture consisting of four M3 multi-pinhole collimators. Each animal received 30 MBq of ^99mTc-labeled compounds delivered in 0.2 mL of Dulbecco's phosphate-buffered saline as a single intravenous injection through a tail vein catheter. Photon emission was recorded using frame times of 60 s (1 h scan: 40-70 min), 90 s (4 h scan, 3.5-4.5 h), and 320 s (20 h scan, 18.5-21.5 h), and binned simultaneously within the 20% energy window of the 140.5 keV photopeak. With each SPECT scan, a corresponding CT image was recorded and used for anatomical referencing and attenuation correction. SPECT images were reconstructed using the Tera-Tomo™ three-dimensional (3D) algorithm at normal range with a voxel size of 0.4 mm and applying corrections for scatter attenuation, and decay.
Small animal positron emission tomography (PET) was performed using the nanoPET/CT scanner (Mediso Medical Imaging Systems). Each animal received 10 MBq of the radiolabeled reference compound [^68Ga]Ga-PSMA-11 delivered in Dulbecco's phosphate-buffered saline as a single intravenous injection through a tail vein catheter. Emission of the 511 keV annihilation photons was recorded continuously at a coincidence mode of 1:5 for 60 min following radiotracer injection. With each PET scan, a corresponding CT image was recorded and used for anatomical referencing and attenuation correction. Three-dimensional list mode data were binned using the 400-600 keV energy window. PET images of the 40-60 min time frame were reconstructed using the Tera-Tomo™ three-dimensional (3D) algorithm with a voxel size of 0.4 mm and applying corrections for random events, scatter, attenuation, and decay.
Three-dimensional VOIs were created applying fixed threshold for delineation of tumor (30%), muscle (0%); and kidneys (39%). Standardized uptake values (SUV=[MBq detected activity/mL tissue]/[MBq injected activity/g body weight], mL/g) were determined and reported as max SUV (VOI-maximum). Time-activity curves were generated and further analyzed using Prism (GraphPad Software, San Diego CA, USA).

T1 sequence (Q04609 whole entry): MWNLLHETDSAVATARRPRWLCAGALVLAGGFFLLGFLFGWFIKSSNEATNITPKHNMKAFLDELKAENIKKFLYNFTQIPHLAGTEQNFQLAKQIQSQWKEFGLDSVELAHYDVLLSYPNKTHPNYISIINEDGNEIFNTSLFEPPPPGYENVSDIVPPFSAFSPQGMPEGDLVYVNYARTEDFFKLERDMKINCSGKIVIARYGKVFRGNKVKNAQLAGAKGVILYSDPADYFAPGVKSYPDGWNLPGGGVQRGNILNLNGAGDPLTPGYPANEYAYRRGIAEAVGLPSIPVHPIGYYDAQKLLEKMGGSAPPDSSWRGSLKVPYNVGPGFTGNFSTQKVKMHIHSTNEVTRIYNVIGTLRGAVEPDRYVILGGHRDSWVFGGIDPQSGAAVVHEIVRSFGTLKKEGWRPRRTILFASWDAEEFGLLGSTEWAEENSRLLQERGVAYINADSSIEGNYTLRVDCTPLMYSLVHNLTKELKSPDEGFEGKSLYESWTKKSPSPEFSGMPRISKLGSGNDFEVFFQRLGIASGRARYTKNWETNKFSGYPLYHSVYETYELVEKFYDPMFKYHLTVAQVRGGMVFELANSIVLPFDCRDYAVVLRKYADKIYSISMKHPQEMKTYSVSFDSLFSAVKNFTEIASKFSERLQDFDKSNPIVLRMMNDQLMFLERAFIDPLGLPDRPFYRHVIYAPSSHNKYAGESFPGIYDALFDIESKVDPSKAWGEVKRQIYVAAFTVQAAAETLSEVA

Kd [1]	Fraction of radioligand in DPBS at 25° C., 1 h [3]	Fraction of radioligand in DPBS at 25° C., 2 h [3]	Fraction of radioligand in DPBS at 25° C., 20 h [3]	SMILES	% Internalization, 37° C. [5]	Internalization, 4° C. (% AD/mg Protein) [5]	Internalization, 37° C. (% AD/mg Protein) [5]	Binding, 4° C. (% AD/mg Protein) [5]	Binding, 37° C. (% AD/mg Protein) [5]	further results
–	101.5 ± 0.6%	99.5 ± 0.8%	93.5 ± 1.8%	CC1(C)CN(CCCCC(=O)N[C@@H](Cc2ccccc2)C(=O)N[C@@H](Cc2ccccc2)C(=O)N[C@@H](CCCCNC(=O)CCCCCCC(=O)NCCCC[C@H](NC(=O)N[C@@H](CCC(=O)O)C(=O)O)C(=O)O)C(=O)O)CC[N]2CC(C)(C)[S][99Tc]2(=[O])[S]1 (stereo partly shown) [[^99mTc]TcO-1]	–	–	–	–	–	LogD (shake-flask, octanol/medium) Na-phosphate pH 7.4 ([2]; 4.4 mM Na2HPO4, 2.2 mM NaH2PO4, pH 7.4): −2.18 ± 0.002; LogD (shake-flask, octanol/medium) PBS 0.1M pH 7.4 ([2]; PBS 0.1M pH 7.4): −1.62 ± 0.01; LogD (shake-flask, octanol/medium) TRIS buffer 0.1M pH 7.4 ([2]; TRIS buffer 0.1M pH 7.4): −2.18 ± 0.01; Fraction of radioligand in DPBS at 25° C., 4 h [3]: 100.2 ± 1.0%; Fraction of radioligand after 6 h in mouse plasma at 37° C. [4]: 96.8 ± 0.3%
–	88.4 ± 14.8%	100 ± 1.8%	98.0 ± 1.0%	CC1(C)CN(CCCCC(=O)N[C@H](Cc2ccc(O)c(I)c2)C(=O)N[C@H](Cc2ccccc2)C(=O)N[C@H](CCCCNC(=O)CCCCCCC(=O)NCCCC[C@H](NC(=O)N[C@@H](CCC(=O)O)C(=O)O)C(=O)O)C(=O)O)CC[N]2CC(C)(C)[S][99Tc]2(=[O])[S]1 (stereo partly shown) [[^99mTc]TcO-4]	39.2%	0.2 ± 0.0 % AD/mg Protein	1.9 ± 0.9 % AD/mg Protein	2.2 ± 0.1 % AD/mg Protein	2.9 ± 0.5 % AD/mg Protein	Fraction of radioligand in DPBS at 25° C., 4 h [3]: 105.5%
–	75.9 ± 0.2%	74.4 ± 0.1%	18.7%	O=C(O)CC[C@H](NC(=O)N[C@@H](CCCCNC(=O)CCCCCCC(=O)NCCCC[C@@H](NC(=O)[C@H](CCC(=O)O)NC(=O)[C@H](CCC(=O)O)NC(=O)CCC(=O)NCCCN1CC[S][99Tc]2(=[O])[S]CC[N]2CC1)C(=O)O)C(=O)O)C(=O)O (stereo partly shown) [[^99mTc]TcO-6]	38.5%	0.2 ± 0.0 % AD/mg Protein	2.9 ± 0.2 % AD/mg Protein	2.5 ± 0.4 % AD/mg Protein	4.7 ± 0.2 % AD/mg Protein	Fraction of radioligand at indicated time point after preparation, 0 h ([6]; 0 h): 89%; Fraction of radioligand at indicated time point after preparation, 2 h ([6]; 2 h): 87%; Fraction of radioligand at indicated time point after preparation, 4 h ([6]; 4 h): 88%; Fraction of radioligand at indicated time point after preparation, 6 h ([6]; 6 h): 85%; Fraction of radioligand in DPBS at 25° C., after 6 h instead of 4 h ([3]; 6 h (footnote &), normalized): 72.3 ± 0.9%^&; tumor-to-liver ratios among the [99mTc]-labeled radioligands [7]: a marked or a significant increase; tumor-to-muscle ratios among the [99mTc]-labeled radioligands [7]: a marked or a significant increase

The next lines start with the compound.

SMILES	Kd [1]	Fraction of radioligand in DPBS at 25° C., 1 h [3]	Fraction of radioligand in DPBS at 25° C., 2 h [3]	Fraction of radioligand in DPBS at 25° C., 20 h [3]	% Internalization, 37° C. [5]	Internalization, 4° C. (% AD/mg Protein) [5]	Internalization, 37° C. (% AD/mg Protein) [5]	Binding, 4° C. (% AD/mg Protein) [5]	Binding, 37° C. (% AD/mg Protein) [5]	further results
CC(C)(S)CNCCN(CCCCC(=O)N[C@@H](Cc1ccccc1)C(=O)N[C@@H](Cc1ccccc1)C(=O)N[C@H](CCCCNC(=O)CCCCCCC(=O)NCCCC[C@H](NC(=O)N[C@@H](CCC(=O)O)C(=O)O)C(=O)O)C(=O)O)CC(C)(C)S [Compound 2]	32.1 ± 24.3 nM	–	–	–	–	–	–	–	–	–
CC(C)(S)CNCCN(CCCCC(=O)N[C@H](Cc1ccc(O)c(I)c1)C(=O)N[C@H](Cc1ccccc1)C(=O)N[C@H](CCCCNC(=O)CCCCCCC(=O)NCCCC[C@H](NC(=O)N[C@@H](CCC(=O)O)C(=O)O)C(=O)O)C(=O)O)CC(C)(C)S [Compound 4]	4.7 ± 3.2 nM	–	–	–	–	–	–	–	–	–
O=C(O)CC[C@H](NC(=O)N[C@@H](CCCCNC(=O)CCCCCCC(=O)NCCCC[C@@H](NC(=O)[C@H](CCC(=O)O)NC(=O)[C@H](CCC(=O)O)NC(=O)CCC(=O)NCCCN(CCS)CCNCCS)C(=O)O)C(=O)O)C(=O)O [Compound 6]	7.3 nM	–	–	–	–	–	–	–	–	–
O=C([O-])CN(CCN(CC(=O)[O-])Cc1cc(CCC(=O)NCCCCCC(=O)NCCCC[C@H](NC(=O)N[C@@H](CCC(=O)O)C(=O)O)C(=O)O)ccc1[O-])Cc1cc(CCC(=O)O)ccc1[O-].[68Ga+3].[OH3+] [^68Ga-PSMA11, reference compound]	–	–	–	–	40.3%	0.1 ± 0.0 % AD/mg Protein	0.5 ± 0.2 % AD/mg Protein	0.3 ± 0.4 % AD/mg Protein	0.8 ± 0.2 % AD/mg Protein	–
